Assay results taken from US11130780B2, “Inhibitors of growth factor activation enzymes” (Washington University, priority 2015, dated 2021).
Residues, ends and D or L forms follow the SMILES beside them. *: point of attachment. ACC = NC(=O)Cc1cc(=O)oc2cc(N*)ccc12

Key:
Assay type in all cases: biochemical
HGFA [1] = molecular target: T1, HGFA (Homo sapiens, UniProt Q04756); experiment: P4-P2 substrate specificity using HyCoSuL, HGFA; set-up: P3 Position % Activity HGFA / P2 Position % Activity HGFA: concentration or dose not given beside the values; P4 Position % Activity HGFA: tested at 100 µM; details: HyCoSuL substrate library; for P2 Position % Activity HGFA: amino acid fixed at P2 position; for P3 Position % Activity HGFA: amino acid fixed at P3 position; for P4 Position % Activity HGFA: amino acid fixed at P4 position
T1 sequence (Q04756 408-655 limits assumed): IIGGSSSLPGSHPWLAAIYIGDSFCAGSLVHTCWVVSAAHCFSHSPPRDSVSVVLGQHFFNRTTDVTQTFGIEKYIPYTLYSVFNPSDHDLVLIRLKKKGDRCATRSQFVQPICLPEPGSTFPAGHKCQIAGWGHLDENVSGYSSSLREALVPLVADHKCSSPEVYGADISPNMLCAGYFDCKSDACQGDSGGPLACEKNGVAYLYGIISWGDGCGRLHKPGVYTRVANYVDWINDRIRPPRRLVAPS
T1 sequence (Q04756 373-407 partner limits assumed): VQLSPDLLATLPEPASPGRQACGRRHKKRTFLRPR
Protocol: (§1) Each of the P4, P3, and P2 sublibraries were screened at the 100 μM concentration with hepsin either HGFA in a 100 μL final volume per well (99 μL of protease in buffer+1 μL of 10 mM substrates mixture). The total time of the assay was 30 minutes, however only linear portions of the progress curve (5-15 minutes) were used for velocity (RFU/s) calculations. Each sublibrary screening was repeated at least 3-times and the average value calculated from each measurement was used to create the substrate specificity matrix—the best recognized amino acid in each position was set to 100%, and other amino acids were adjusted accordingly.
(§2) HFGA enzyme was diluted in the assay buffer (0.15 M NaCl, 0.025 M Tris, 0.005 M CaCl2, pH=8.0) to the final concentration of 10-20 nM (depending of sublibrary) and incubated at 25° C. for 30 minutes before added to a substrate.

hepsin [2] = molecular target: T2, hepsin (Homo sapiens, UniProt P05981); experiment: P1 substrate specificity using Ac-Ala-Arg-Leu-P1-ACC individual substrate library, hepsin; details: substrate 5 μM; best amino acid set to 100%
T2 construct: purchased R&D Systems 4776-SE-010
Protocol: (§3) Recombinant human hepsin (10 μg in 20 uL, 4776-SE-010, R&D Systems) was added to the 100 μL of activation buffer (0.1 M Tris, 0.15 M NaCl, 0.01 M CaCl2, 0.05% TRITON-X, pH=8.0) and incubated at 37° C. for 24 hours (hepsin concentration in activation buffer 2 μM). Once activated hepsin was diluted in assay buffer (0.05 M Tris, pH=9.0) to the final concentration of 4 nM and incubated at 37° C. for 15 minutes before added to a substrate.
(§4) The protocol for both enzymes activation and incubation are as the same as in HyCoSuL screening. The P1 individual substrate library was used at the final concentration of 5 μM. The total time of the assay was 30 min, however only linear portions of the progress curve (5-15 minutes) were used for velocity (RFU/s) calculations. Each screening for hepsin either HGFA was repeated 3-times and the average value for each measurement was used to create the substrate specificity matrix.

hepsin [3] = molecular target: T2, hepsin; experiment: P4-P2 substrate specificity using HyCoSuL, hepsin; set-up: concentration or dose not given beside the values; details: HyCoSuL substrate library; for P2 Position % Activity Hepsin: amino acid fixed at P2 position; for P3 Position % Activity Hepsin: amino acid fixed at P3 position; for P4 Position % Activity Hepsin: amino acid fixed at P4 position
Protocol: as §1, §3

HGFA [4] = molecular target: T1, HGFA; experiment: P1 substrate specificity using Ac-Ala-Arg-Leu-P1-ACC individual substrate library, HGFA; details: substrate 5 μM; best amino acid set to 100%
Protocol: as §2, §4

T2 sequence (P05981 163-417 limits assumed): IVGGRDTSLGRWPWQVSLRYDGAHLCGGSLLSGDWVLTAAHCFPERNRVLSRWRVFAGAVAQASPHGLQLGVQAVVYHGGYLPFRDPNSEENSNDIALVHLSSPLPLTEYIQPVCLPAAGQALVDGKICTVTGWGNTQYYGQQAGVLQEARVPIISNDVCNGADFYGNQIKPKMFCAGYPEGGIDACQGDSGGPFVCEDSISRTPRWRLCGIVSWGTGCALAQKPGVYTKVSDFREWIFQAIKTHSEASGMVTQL
T2 sequence (P05981 45-162 partner limits assumed): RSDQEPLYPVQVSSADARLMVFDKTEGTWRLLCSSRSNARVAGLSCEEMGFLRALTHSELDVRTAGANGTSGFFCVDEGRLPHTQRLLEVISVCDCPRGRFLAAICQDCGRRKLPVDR

Compound	P2 Position % Activity HGFA (HGFA [1]) [%]	P3 Position % Activity HGFA (HGFA [1]) [%]	P4 Position % Activity HGFA (HGFA [1]) [%]	% activity, P1 position, Hepsin (hepsin [2]) [%]	P2 Position % Activity Hepsin (hepsin [3]) [%]	P3 Position % Activity Hepsin (hepsin [3]) [%]	P4 Position % Activity Hepsin (hepsin [3]) [%]	% activity, P1 position, HGFA (HGFA [4]) [%]
CC(=O)N[C@@H](C)C(=O)N[C@@H](CCCNC(=N)N)C(=O)N[C@@H](CC(C)C)C(=O)N[C@@H](CCCNC(=N)N)C(=O)Nc1ccc2c(CC(N)=O)cc(=O)oc2c1 [Ac-Ala-Arg-Leu-Arg-ACC] (Ac-ARLR-{ACC})	2.08	43.98	23.62	100.00	57.23	70.75	80.32	100.00
D-Ala	0.00	9.84	7.11	0.00	0.00	48.09	18.44	0.00
D-Asn	0.00	15.16	7.38	0.00	0.00	38.75	18.48	0.00
D-Asp	0.00	5.37	2.25	0.05	0.00	17.18	1.98	0.00
D-Gln	0.00	13.84	8.03	0.00	0.00	97.80	20.13	0.00
D-Glu	0.00	3.61	2.62	0.00	0.00	34.55	2.98	0.00
D-Leu	0.00	7.08	10.56	0.00	0.00	20.14	24.76	0.00
D-Lys	0.00	21.11	17.66	0.23	0.00	64.56	49.84	0.00
D-Phe	0.00	15.22	8.13	–	0.00	24.92	13.15	0.00
D-Pro	0.00	4.96	10.30	1.08	0.00	38.88	20.45	0.00
D-Ser	0.00	10.86	7.94	0.02	11.55	54.84	21.84	0.00
D-Thr	0.00	6.45	8.61	0.24	0.00	36.69	25.74	0.00
D-Trp	0.00	87.59	7.65	0.50	0.00	24.90	1.48	0.00
D-Tyr	0.00	17.32	10.09	0.23	0.00	29.94	12.66	0.00
L-Cit	6.32	13.41	6.44	0.42	32.27	29.53	36.68	0.00
L-Dap	1.49	24.27	13.31	0.03	10.01	48.71	35.65	0.00
